For one compound, IC50 results are on record in patent publication US20210278408A1, “METHODS OF TREATMENT OF CANCER WITH SUBSTITUTED PYRROLE AND PYRAZOLE COMPOUNDS AND DIAGNOSIS OF CANCERS SUSCEPTIBLE TO TREATMENT WITH SUBSTITUTED PYRROLE AND PYRAZOLE COMPOUNDS” (Bantam Pharmaceutical, LLC, priority 2018, published 2021).

By IC50 is commonly meant the concentration that gives 50% inhibition. A lower IC50 goes with higher potency.

Holding throughout (assay type): cell-based, human
One assay deals with HUVEC. Nature of the assay: Anti-proliferative activity, CellTiter-Glo, 72 hours: HUVEC. Particulars: HUVEC (primary endolithial cells), Cell-Titre-Glo. The protocol:
(§1) Anti-proliferative activity of BTM compounds. The anti-proliferative activities of Compound A197 and Compound B19 were compared to 4EGI-1 (a known cancer cell growth inhibitor) in a panel of 99 tumor lines. Methods: A panel of 96 tumor and 3 normal cell lines were tested for sensitivity to the test compound. The cell lines were cultured in standard media and pipetted into 96-well plates at the required plating densities. The cells were acclimated for 24 hours prior to compound testing. Compound was prepared as a stock of 20 mM in DMSO. To prepare dose response curves compound was serially diluted in DMSO and dispensed into the plate wells using a Tecan D300e digital dispenser. The final DMSO concentration was 0.15%. After 72 hours of incubation cell number was determined using the CellTiter-Glo® protocol according to the manufacturers instructions (Promega). In this assay, ATP is measured as a surrogate of cell number. The activity of the compound is determined by comparing untreated cells with treated cells and calculating the % of signal retained. Compound activity is measured as an EC50 of maximum level of efficacy and the two are used to compute an activity area. The table below provides a comparison of activity in a data sample.
(In ATP-based viability assays light output follows the ATP content of the culture.)

For another assay, the system named is Jurkat. Nature of the assay: Anti-proliferative activity, CellTiter-Glo, 72 hours: Jurkat. As to conditions: Jurkat (T cell leukemia), Cell-Titre-Glo. The method, then:
as §1

Another assay deals with LoVo. Nature of the assay: Anti-proliferative activity, CellTiter-Glo, 72 hours: LoVo. Particulars: LoVo (colorectal cancer), Cell-Titre-Glo. The method, then:
as §1

In another assay the test system is A549. Nature of the assay: Anti-proliferative activity, CellTiter-Glo, 72 hours: A549. As to conditions: A549 (non-small cell lung cancer), Cell-Titre-Glo. The method, then: as §1
The test system of another assay is HT-1080. As to the kind of experiment: Anti-proliferative activity, CellTiter-Glo, 72 hours: HT-1080. As to conditions: HT-1080 (fibrosarcoma), Cell-Titre-Glo. The method, then: as §1
In a further assay the test system is SK-MEL-28. As to the kind of experiment: Anti-proliferative activity, CellTiter-Glo, 72 hours: SK-MEL-28. Particulars: SK-MEL-28 (melanoma), Cell-Titre-Glo. The protocol:
as §1

A further assay has as its system NCI-H2122. As to the kind of experiment: Anti-proliferative activity, CellTiter-Glo, 72 hours: NCI-H2122. Particulars: NCI-H2122 (non-small cell lung cancer), Cell-Titre-Glo. The method, then:
as §1

In another assay the test system is SU-DHL-4. Nature of the assay: Anti-proliferative activity, CellTiter-Glo, 72 hours: SU-DHL-4. Particulars: SU-DHL-4 (B-cell lymphoma), Cell-Titre-Glo. The method, then: as §1
Another assay deals with MDA-MB-157. Nature of the assay: Anti-proliferative activity, CellTiter-Glo, 72 hours: MDA-MB-157. As to conditions: MDA-MB-157 (breast cancer); 72 hours; Cell-Titre-Glo. The protocol:
as §1

For another assay, the system named is NCI-H460. As to the kind of experiment: Anti-proliferative activity, CellTiter-Glo, 72 hours: NCI-H460. As to conditions: NCI-H460 (non-small cell lung cancer), Cell-Titre-Glo. The method, then:
as §1

The next assay relates to HCT-116. Nature of the assay: Anti-proliferative activity, CellTiter-Glo, 72 hours: HCT-116. As to conditions: HCT-116 (colorectal cancer), Cell-Titre-Glo. The protocol: as §1
The next assay has as its system SU-DHL-6. Nature of the assay: Anti-proliferative activity, CellTiter-Glo, 72 hours: SU-DHL-6. Particulars: SU-DHL-6 (B-cell lymphoma), Cell-Titre-Glo. The method, then:
as §1

The next assay deals with MIA PaCa-2. As to the kind of experiment: Anti-proliferative activity, CellTiter-Glo, 72 hours: MIA PaCa-2. Particulars: MIA PaCa-2 (pancreactic cancer (carcinoma)), Cell-Titre-Glo. The protocol:
as §1

The next assay concerns MDA-MB-231. Nature of the assay: Anti-proliferative activity, CellTiter-Glo, 72 hours: MDA-MB-231. As to conditions: MDA-MB-231 (breast cancer), Cell-Titre-Glo. The protocol: as §1
A further assay concerns SU-DHL-10. Nature of the assay: Anti-proliferative activity, CellTiter-Glo, 72 hours: SU-DHL-10. As to conditions: SU-DHL-10 (B-cell lymphoma), Cell-Titre-Glo. The method, then: as §1
A further assay relates to HK-2. Nature of the assay: Anti-proliferative activity, CellTiter-Glo, 72 hours: HK-2. As to conditions: HK-2 (kidney epilithial), Cell-Titre-Glo. The method, then: as §1

For `O=C(O)C(Cc1ccccc1[N+](=O)[O-])=NNc1nc(-c2ccc(Cl)c(Cl)c2)cs1` (mixture of isomers) [Compound 4EGI-1, 4EGI-1, reference compound], the IC50 with HUVEC was found to be 7.99 µM; in the assay on Jurkat, 13.2 µM; in the assay with LoVo it was 14.1 µM; with A549 it was 21.8 µM; with HT-1080, 4.66 µM; in the assay on SK-MEL-28 it was 33.4 µM. Besides, the IC50 with NCI-H2122 is 13.8 µM; in the assay on SU-DHL-4, 8.42 µM; with MDA-MB-157, 11.8 µM; in the assay on NCI-H460, 9.46 µM; in the assay with HCT-116 it was 10.5 µM; with SU-DHL-6, 7.26 µM. The IC50 turned out to be 14.3 µM with MIA PaCa-2, 5.77 µM in the assay on MDA-MB-231, 19.5 µM with SU-DHL-10 and 46 µM with HK-2.
